Assay results from patent US11524934B2, “Phenylamine compounds” (PI INDUSTRIES LTD., priority 2017, dated 2022).

What was measured:
Pyricularia oryzae = experiment: microbe, parasite or virus in culture; assay type: cell-based; details: 168 h, read-out: control
Rhizoctonia solani = details: 168 h, read-out: control
Septoria lycopersici = Septoria lycopersici (Leaf spot of tomato) in vitro test, radial growth on Potato Dextrose Agar; details: 168 h, read-out: control
Botrytis cinerea = Botrytis cinerea (Gray mold) in vitro test, radial growth on Potato Dextrose Agar; details: 168 h, read-out: control
Fusarium culmorum = Fusarium culmorum (Foot rot of cereals) in vitro test, radial growth on Potato Dextrose Agar; assay type: cell-based; details: 168 h, read-out: control
Alternaria solani = Alternaria solani (early blight of tomato/potato) in vitro test, radial growth on Potato Dextrose Agar; details: 168 h, read-out: control
Colletotrichum capsici = Colletotrichum capsici (anthracnose) in vitro test, radial growth on Potato Dextrose Agar; details: Colletotrichum truncatum, 168 h, read-out: control
Procedure: Colletotrichum capsici (anthracnose): Compounds were dissolved in 0.3% DMSO & then added to Potato Dextrose Agar medium just prior to dispensing it into Petri dishes. 5 ml medium with compound in the desired concentration was dispensed into 60 mm sterile petri-plates. After solidification each plate was seeded with 5 mm size mycelial disc taken form periphery of actively growing virulent culture plate. Plates were incubated in growth chambers at 25° C. temperature & 60% Relative Humidity for seven days and radial growth was measured.

Phakopsora pachyrhizi = Phakopsora pachyrhizi test in soybean (in vivo on plants), preventive activity; details: preventive spray on soybean plants, inoculated one day after treatment, disease severity rated vs untreated check
Procedure: Example 8 (In Vivo on Plants): Phakopsora pachyrhizi Test in Soybean
Compounds were dissolved in 2% DMSO/Acetone & then mixed with water to the calibrated spray volume of 50 ml and poured into the spray bottles for further applications.
To test the preventive activity of compounds, healthy young soybean plants raised in the greenhouse were sprayed with active compound preparation at the stated application rates inside the spray cabinets using hallowcone nozzles. One day after treatment, the plants were inoculated with spore suspension containing 2.1×10^6 Phakopsora pachyrhizi inoculum. The inoculated plants were then kept in greenhouse chamber at 25° C. temperature & 90% Relative Humidity for disease expression.
A visual assessment of compound's performance was carried out by rating the disease severity (0-100% scale) on treated plants on 3, 7, 10 & 15 days after application. Efficacy (% control) of the compounds was calculated by comparing the disease rating in the treatment with the one of the untreated control. The sprayed plants were also assessed for compound's plant compatibility by recording symptoms like necrosis, chlorosis & stunting.

| Structure (SMILES) | inhibition of growth at 300 ppm (Pyricularia oryzae) | inhibition of growth at 300 ppm (Rhizoctonia solani) | inhibition of growth at 300 ppm (Septoria lycopersici) | inhibition of growth at 300 ppm (Botrytis cinerea) | inhibition of growth at 300 ppm (Fusarium culmorum) | inhibition of growth at 300 ppm (Alternaria solani) | inhibition of growth at 300 ppm (Colletotrichum capsici) | pest or weed control at 500 ppm (Phakopsora pachyrhizi) |
| --- | --- | --- | --- | --- | --- | --- | --- | --- |
| CCN(C)C=Nc1cc(C)c(C(=O)CSc2ccc(Cl)cc2)cc1C [Compound 29, N′-(4-(2-((4-chlorophenyl)thio)acetyl)-2,5-dimethylphenyl)-N-ethyl-N-methylformimidamide] | > 70% | > 70% | > 70% | > 70% | 70% | > 70% |  |  |
| CCN(C)C=Nc1cc(C)c(C(=O)CN(C)c2ccc(Cl)cc2)cc1C [Compound 84, N′-(4-(N-(4-chlorophenyl)-N-methylglycyl)-2,5-dimethylphenyl)-N-ethyl-N-methylformimidamide] | > 70% | > 70% | > 70% | > 70% | 70% | > 70% | > 70% |  |
| CCN(C)C=Nc1cc(C)c(C(=O)COc2cccc(Br)c2)cc1C [Compound 3, N′-(4-(2-(3-bromophenoxy)acetyl)-2,5-dimethylphenyl)-N-ethyl-N-methylformimidamide] | > 70% | > 70% | > 70% | > 70% |  | > 70% | > 70% |  |
| CCN(C)C=Nc1cc(C)c(C(=O)COc2cccc(F)c2)cc1C [Compound 9, N-ethyl-N′-(4-(2-(3-fluorophenoxy)acetyl)-2,5-dimethylphenyl)-N-methylformimidamide] | > 70% | > 70% | > 70% | > 70% |  | > 70% | > 70% | > 90% |
| CCN(C)C=Nc1cc(C)c(C(=O)COc2c(C)cc(C)cc2Br)cc1C [Compound 89, N′-(4-(2-(2-bromo-4,6-dimethylphenoxy)acetyl)-2,5-dimethylphenyl)-N-ethyl-N-methylformimidamide] | > 70% | > 70% | > 70% | > 70% |  | > 70% | > 70% |  |
| CCN(C)C=Nc1cc(C)c(C(=O)CSc2ccc(Cl)c(Cl)c2)cc1C [Compound 8, N′-(4-(2-((3,4-dichlorophenyl)thio)acetyl)-2,5-dimethylphenyl)-N-ethyl-N-methylformimidamide] | > 70% | > 70% |  | > 70% |  | > 70% |  | > 90% |
| CCN(C)C=Nc1cc(C)c(C(=O)COc2c(Cl)cccc2Cl)cc1C [Compound 86, N′-(4-(2-(2,6-dichlorophenoxy)acetyl)-2,5-dimethylphenyl)-N-ethyl-N-methylformimidamide] | > 70% | > 70% |  | > 70% | 70% | > 70% | > 70% |  |
| CCN(C)C=Nc1cc(C)c(C(=O)CN(C)c2ccc(C)cc2)cc1C [Compound 92, N′-(2,5-dimethyl-4-(N-methyl-N-(p-tolyl)glycyl)phenyl)-N-ethyl-N-methylformimidamide] | > 70% | > 70% | > 70% |  |  | > 70% | > 70% |  |
| CCN(C)C=Nc1cc(C)c(C(=O)COc2ccc(OC)cc2)cc1C [Compound 10, N-ethyl-N′-(4-(2-(4-methoxyphenoxy)acetyl)-2,5-dimethylphenyl)-N-methylformimidamide] | > 70% | > 70% | > 70% |  |  | > 70% |  | > 90% |
| CCN(C)C=Nc1cc(C)c(C(=O)CSc2ccccc2)cc1C [Compound 1, N′-(2,5-dimethyl-4-(2-(phenylthio)acetyl)phenyl)-N-ethyl-N-methylformimidamide] | > 70% | > 70% | > 70% | > 70% |  | > 70% |  | > 90% |
| CCN(C)C=Nc1cc(C)c(C(=O)CSc2cccc(Br)c2)cc1C [Compound 6, N′-(4-(2-((3-bromophenyl)thio)acetyl)-2,5-dimethylphenyl)-N-ethyl-N-methylformimidamide] | > 70% | > 70% | > 70% | > 70% |  | > 70% | > 70% | > 90% |
| CCN(C)C=Nc1cc(C)c(C(=O)CSc2ncc(C(F)(F)F)cc2Cl)cc1C [Compound 18, N′-(4-(2-((3-chloro-5-(trifluoromethyl)pyridin-2-yl)thio)acetyl)-2,5-dimethylphenyl)-N-ethyl-N-methylformimidamide] | > 70% | > 70% |  | > 70% |  | > 70% |  | > 90% |
| Cc1cc(C(=O)COc2ccccc2Cl)c(C)cc1N=CN(C)C [Compound 109, N′-(4-(2-(2-chlorophenoxy)acetyl)-2,5-dimethylphenyl)-N,N-dimethylformimidamide] | > 70% |  |  |  | 70% | > 70% | > 70% |  |
| CCN(C)C=Nc1cc(C)c(C(=O)COc2c(C)cccc2Cl)cc1C [Compound 91, N′-(4-(2-(2-chloro-6-methylphenoxy)acetyl)-2,5-dimethylphenyl)-N-ethyl-N-methylformimidamide] | > 70% | > 70% |  | > 70% | 70% | > 70% | > 70% |  |
| CCN(C)C=Nc1cc(C)c(C(=O)CSc2cccc(F)c2)cc1C [Compound 4, N-ethyl-N′-(4-(2-((3-fluorophenyl)thio)acetyl)-2,5-dimethylphenyl)-N-methylformimidamide] | > 70% | > 70% | > 70% | > 70% |  | > 70% | > 70% | > 90% |
| CCN(C)C=Nc1cc(C)c(C(=O)CSc2cccc(C)c2)cc1C [Compound 5, N′-(2,5-dimethyl-4-(2-(m-tolylthio)acetyl)phenyl)-N-ethyl-N-methylformimidamide] | > 70% |  | > 70% | > 70% | 70% | > 70% | > 70% |  |
| CCN(C)C=Nc1cc(C)c(C(=O)C(C)(C)Sc2cccc(C)c2)cc1C [Compound 83, N′-(2,5-dimethyl-4-(2-methyl-2-(m-tolylthio)propanoyl)phenyl)-N-ethyl-N-methylformimidamide] | > 70% | > 70% |  | > 70% | 70% | > 70% | > 70% |  |
| CCN(C)C=Nc1cc(C)c(C(=O)COc2ccc(C)cc2)cc1C [Compound 15, N′-(2,5-dimethyl-4-(2-(p-tolyloxy)acetyl)phenyl)-N-ethyl-N-methylformimidamide] | > 70% | > 70% | > 70% | > 70% |  | > 70% | > 70% | > 90% |
| CCN(C)C=Nc1cc(C)c(C(=O)Cn2cnnc2)cc1C [Compound 114, N′-(4-(2-(4H-1,2,4-triazol-4-yl)acetyl)-2,5-dimethylphenyl)-N-ethyl-N-methylformimidamide] | > 70% | > 70% |  | > 70% | 70% | > 70% | > 70% |  |
| CCN(C)C=Nc1cc(C)c(C(=O)CSc2cccc(OC)c2)cc1C [Compound 27, N-ethyl-N′-(4-(2-((3-methoxyphenyl)thio)acetyl)-2,5-dimethylphenyl)-N-methylformimidamide] | > 70% | > 70% | > 70% | > 70% |  | > 70% | > 70% |  |
